# From patent publication US11370847B2, “Single domain antibodies directed against intracellular antigens” (Singh Biotechnology, LLC, priority 2014, dated 2022)
# “And” between values parts separate entries of the source, which are not always exact repeats. Equal values may be shown once.
# Key:
# DU145 cells = test: MTT proliferation assay, DU145; format: cell-based, human; settings: 50 μg, single experiments, listed as Anti-STAT3 Bacterial VHH13
# BT474 xenograft = test: BT474 human breast tumor xenograft in CB.17 SCID mice; format: in vivo
# HT1080 cells = test: MTT proliferation assay, HT1080; format: cell-based, human; settings: HT1080, 72 hr
# STAT5 = test: Biacore 3000 protein binding, STAT5
# SIE-luc2P/HEK293 cells = test: BCA protein concentration of reporter cells; format: cell-based; settings: highest concentration (55.8 μg/mL)
# STAT3 = test: Immunofluorescence of Stat3 nuclear translocation after IL-6; format: cell-based; settings: HEp-2, MDA-MB-231 and PANC-1 cells; sdAb 1:10 overnight; 100 ng/ml IL-6 15 min
# Protocol: The cells were grown to confluence on chamber slides. […] As a negative control, no antibody was added to duplicate chambers. The slides were washed, and either serum-free media alone or 100 ng/ml recombinant human IL-6 (Peprotech, Rocky Hill, N.J.) in serum free media was added to the slides for 15 min at 37° C. The media was then removed and the chamber slides were fixed in ice cold 100% methanol for 10 min at −20° C.
# Immunofluorescence assays were performed on the fixed slides. First, the slides were blocked with 3% BSA in PBS was done for one hour at room temperature. The primary antibody, Stat3(124H6) mouse monoclonal antibody (Cell Signaling Technology, Danvers, Mass.) was added to the slides at a 1:1000 dilution overnight in dark box at 4° C. The following day, the slides were washed and the secondary Alexa Fluor 488 anti-mouse IgG antibody (Cell Signaling Technology) was added at a 1:500 dilution and incubated for 1 hour at room temperature. The slides were then washed, mounted with mounting media and viewed with a fluorescence microscope.
# VEGF-A = VEGF-A ELISA in ARPE-19 retinal cells; format: cell-based, human; settings: Experiment 2; for pg VEGF-A per μg protein: single wells
# [1] = tested on: Zika/DAKAR D41525 Senegal strain
# PANC-1 cells = test: MTT proliferation assay, PANC-1; settings: SBT-100 100 μg/ml alone, experiment with Gemcitabine Hydrochloride (Biovision #1759), 72 hours
# [2] = SB-01 1 mg/kg ip tid × 14 first day 2 doses
substance,measurement,setting,value
"anti-STAT3 VHH13: anti-STAT3 single-domain antibody, SEQ ID NO:3; bacterially produced, referred to as SBT-100",Absorbance,DU145 cells,0.68 and 1.2
same,effect on growth of BT474 tumors compared to control,BT474 xenograft; 1 mg/kg ip tid × 14,did not reduce the growth of BT474 tumors in vivo
same,% TGD,BT474 xenograft; [2],22%
same,MTV (n) Day 60,BT474 xenograft; [2],550
same,Median TTE,BT474 xenograft; [2],60.0
same,IC50,HT1080 cells,IC50 = 33 μg/ml
same,binding to STAT5,"STAT5; Biacore 3000, sdAb immobilized",bound
same,Result (binding),"STAT5; Table 50, sdAb immobilized as ligand, analyte STAT5 protein 500 nM",Binding
same,decrease in protein,SIE-luc2P/HEK293 cells,approximately 2 fold
same,translocation of Stat3 to the nucleus following IL-6 treatment,STAT3,blocks the translocation of Stat3 to the nucleus
same,pg VEGF-A per μg protein,"VEGF-A; ARPE-19, 0.1 μg/well, 12 Hr",2.4 pg per μg protein
same,pg VEGF-A per μg protein,"VEGF-A; ARPE-19, 10 μg/well, 24 Hr",4.4 pg per μg protein
same,decrease in VEGF-A,"VEGF-A; ARPE-19, 100 μg/mL, 12 hour treatment",20.1%
same,decrease in VEGF-A,"VEGF-A; ARPE-19, 100 μg/mL, 24 hour treatment",7.5%
same,pg VEGF-A/μg protein as % of the negative control,"VEGF-A; ARPE-19, 100 μg/mL, 48 hours",11%
same,decrease in VEGF-A,"VEGF-A; lower concentrations (10, 1 or 0.1 μg/ml)",not seen
same,EC50,[1],11.04 ug/m
same,EC90,[1],48.11 µg/mL
same,Abs,PANC-1 cells,0.381
